Here are results for three compounds from patent US20050090506A1, “Insecticidal perfluoroalkylthiazole derivatives” (Nippon Soda Co., Ltd., priority 2003, published 2005).

Each structure is given as a SMILES string.

With `CCOC(=O)c1sc(NC(=O)c2ccc(C)cc2)nc1C(F)(F)C(F)(F)F` [Compound 2, N-(5-Ethoxycarbonyl-4-pentafluoroethylthiazol-2-yl)-4-methylbenzamide], the melting point is 202 to 203 °C.

With `O=C(Nc1nc(C(F)(F)C(F)(F)F)c(CCl)s1)c1cc(C(F)(F)F)cc(C(F)(F)F)c1` [Compound 47, N-(5-chloromethyl-4-pentafluoroethylthiazol-2-yl)-3,5-bis-trifluoromethylbenzamide], the melting point is 133 to 134 °C.

`CCOC(=O)c1sc(NC(=O)c2cc(C(F)(F)F)cc(C(F)(F)F)c2)nc1C(F)(F)C(F)(F)F` [Compound 68, N-(5-Ethoxycarbonyl-4-pentafluoroethylthiazol-2-yl)-3,5-bis-trifluoromethylbenzamide] returned a melting point of 154 to 155 °C.
